Assay results taken from patent publication US7335352B1, “Method of identifying agents that inhibit quorum sensing activity of gamma-proteobacteria” (priority 2003, dated 2008).
“Also recorded” adds a separate entry of the source. Where two headings read alike, the source gives them in different places.

Tests used:
P. aeruginosa PAO1 [1] = format: cell-based, Pseudomonas aeruginosa; settings: for Yield: substrate as energy source; for Use as sole source of energy or nitrogen: MES 5.5 media; for Utilization as an energy source: pH 5.5
Experimental: (§1) Media and growth conditions. LB, amended with antibiotics when appropriate, was used for growth and maintenance of all strains unless otherwise stated. For the 3OC12HSL-dependent enrichment of strain PAI-A and other growth experiments performed on this strain, modified “MES 5.5” defined-medium was used to enrich and study Variovorax paradoxus VAI-C (21). These modifications to the medium included buffering with 5 mM 3-(N-morpholino)-propanesulfonic acid (MOPS) at pH 7.2 and the addition of sodium sulfate (14 g·liter^−1) and magnesium chloride (4 g·liter^−1). For growth experiments with P. aeruginosa, “MES 5.5” defined medium was used as described previously (21) with the exception that it contained sodium sulfate, not sulfite, as S-source, a typographical error in the reported recipe. Unless otherwise noted, the medium was buffered to a pH of 5.5 with 5 mM 2-(N-morpholino)-ethanesulfonic acid (MES). Ammonium-free “MES 5.5” basal medium was used to examine the utilization of AHLs and HSL as potential nitrogen sources. 100 mM stock solutions of AHLs were prepared by dissolving AHLs in ethyl acetate that had been acidified with glacial acetic acid (0.01% v/v), and stocks were stored at −20° C. AHLs used in these studies were: N-3-oxododecanoyl-L-homoserine lactone (3OC12HSL; Quorum Sciences Inc., Iowa City Iowa), N-3-oxohexanoyl-L-homoserine lactone (3OC6HSL; Sigma), and from Fluka: N-3-butanoyl-DL-homoserine lactone (C4HSL), N-3-hexanoyl-DL-homoserine lactone (C6HSL), N-3-heptanoyl-DL-homoserine lactone (C7HSL), N-3-octanoyl-DL-homoserine lactone (C8HSL), N-3-[…], N-3-dodecanoyl-DL-homoserine lactone (C12HSL), N-3-tetradecanoyl-DL-homoserine lactone (C14HSL). For growth experiments, the AHL was dispensed into sterile tubes, the ethyl acetate was removed by evaporation under a stream of sterile air, and sterile medium was added to the dried AHL that remained. Stocks of L-HSL (Sigma) were prepared just prior to their use from well-desiccated reagent stored at −20° C. […] Cells were grown in 5 ml of medium in 18-mm tubes with shaking at 37° C. unless otherwise noted. AHL molecules are stable for approximately 30 days under the conditions of low pH in our defined medium (9, 34). Unless noted, all other reagents were of reagent grade.
(§2) Growth studies. Optical density measurements were performed at 600 nm using a Spectronic 20 spectrophotometer. […] When care was taken to vortex tubes gently, the changes in optical density reflecting growth could be monitored accurately. Molar growth yields were determined in the defined media containing the indicated substrate at a final concentration of 1 or 2 mM. For both Pseudomonas PAI-A and P. aeruginosa PAO1, factors for converting optical density to cell dry mass were determined by growing cells in media containing succinate as the energy source and NH4Cl as the nitrogen source, washing the cells with 50 mM ammonium acetate buffer (pH 5.5), and drying cell samples to a constant weight. Such determinations were made in quadruplicate.

Pseudomonas strain PAI-A [2] = format: cell-based
Experimental: as §1, §2

PvdQ AHL acylase = target: T1, PvdQ AHL acylase (Pseudomonas aeruginosa, UniProt Q9I194); test: AHL degradation by resting E. coli cells expressing recombinant PvdQ (LC/APCI-MS); format: cell-based, P. aeruginosa; settings: for HSL-releasing degradation by E. coli expressing recombinant PvdQ: resting cells OD600 1.2, MOPS pH 7.2, 18° C., 10 μM 3OC12HSL; for Product accumulation in PvdQ-expressing E. coli suspensions: incubated with 10 μM 3OC12HSL
T1 construct: The deduced coding region for PvdQ (Gene PA2385; www.pseudomonas.com) was amplified from the genomic DNA; expressed in transfected cells; host or cells: E. coli BL21PRO carrying pPvdQ-PROTet (pPROTet.E133-derived, aTc-inducible)
T1 sequence (Q9I194 24-193): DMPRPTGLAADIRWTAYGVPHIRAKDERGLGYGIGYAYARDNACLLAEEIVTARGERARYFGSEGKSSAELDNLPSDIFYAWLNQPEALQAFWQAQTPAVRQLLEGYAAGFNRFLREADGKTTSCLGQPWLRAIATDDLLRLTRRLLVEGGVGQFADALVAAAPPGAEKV
T1 sequence (Q9I194 217-762): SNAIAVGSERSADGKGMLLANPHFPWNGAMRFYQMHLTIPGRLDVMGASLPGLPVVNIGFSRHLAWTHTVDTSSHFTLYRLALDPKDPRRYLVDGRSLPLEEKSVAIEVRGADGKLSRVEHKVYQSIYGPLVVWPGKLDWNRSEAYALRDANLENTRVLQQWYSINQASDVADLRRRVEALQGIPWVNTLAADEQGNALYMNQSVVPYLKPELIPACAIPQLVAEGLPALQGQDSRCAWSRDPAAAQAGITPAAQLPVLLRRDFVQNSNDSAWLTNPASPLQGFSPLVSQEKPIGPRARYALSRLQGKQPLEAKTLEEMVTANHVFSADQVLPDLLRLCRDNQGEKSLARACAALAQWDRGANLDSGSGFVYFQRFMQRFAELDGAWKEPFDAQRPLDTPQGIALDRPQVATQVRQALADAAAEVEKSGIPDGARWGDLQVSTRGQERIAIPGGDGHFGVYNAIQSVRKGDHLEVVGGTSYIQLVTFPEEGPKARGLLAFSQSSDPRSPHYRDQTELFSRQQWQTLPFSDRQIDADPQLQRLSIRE
Source text: (§3) Analysis of cell-free culture and reaction fluids. […] Dilutions were made using “MES 5.5” medium.
Cloning and expression of pvdQ (PA2385) encoding a putative P. aeruginosa AHL acylase. Genomic DNA was isolated from P. aeruginosa PAO1 using the DNeasy™ tissue kit (QIAGEN) and used as a template for PCR. The deduced coding region for PvdQ (Gene PA2385; www.pseudomonas.com) was amplified from the genomic DNA using the following primers: 5′-[…]-3′ (SEQ ID NO:6) and 5′-[…]-3′ (SEQ ID NO:7; bold print indicates HindIII and NotI restriction sites, respectively), cloned into the appropriately digested expression vector, pPROTet.E133 (Clontech), and transformed into E. coli BL21PRO. Recombinant AHL acylase activity was examined as follows. After growth in LB medium containing spectinomycin (50 μg ml^−1) and chloramphenicol (34 μg ml^−1), and after gene induction by the addition of anhydrotetracycline (aTc, 100 ng ml^−1) at 18° C., cells were pelleted and resuspended to a final optical density of 1.2 in MOPS buffered media (pH 7.2) containing 10 μM 3OC12HSL. Recombinant cells that had not been induced with aTc were used as a negative control. Reaction mixtures were incubated at 18° C.; 150 μl samples were removed at 0, 15, 30, and 60 min and analyzed for AHL disappearance and product appearance via LC/APCI-MS (see above).

Pseudomonas strain PAI-A [3] = test: TLC of reaction fluids of dense PAI-A cell suspensions incubated with AHL; format: cell-based; settings: dense PAI-A cell suspension; 25 mM C12HSL
Source text: as §3

P. aeruginosa PAO1 [4] = settings: dense PAO1 cell suspension; 25 mM C12HSL
Source text: Analysis of cell-free culture and reaction fluids. For the initial characterization of the intermediates in AHL degradation, a TLC method was used (16).

P. aeruginosa PA14 = test: Growth of P. aeruginosa PA14 on 3OC12HSL as sole energy source; format: cell-based, Pseudomonas aeruginosa; settings: defined ammonia-replete media, pH 5.5 and 7.2, naive cells after lag
Experimental: Media and growth conditions. LB, amended with antibiotics when appropriate, was used for growth and maintenance of all strains unless otherwise stated. For the 3OC12HSL-dependent enrichment of strain PAI-A and other growth experiments performed on this strain, modified “MES 5.5” defined-medium was used to enrich and study Variovorax paradoxus VAI-C (21). These modifications to the medium included buffering with 5 mM 3-(N-morpholino)-propanesulfonic acid (MOPS) at pH 7.2 and the addition of sodium sulfate (14 g·liter^−1) and magnesium chloride (4 g·liter^−1). For growth experiments with P. aeruginosa, “MES 5.5” defined medium was used as described previously (21) with the exception that it contained sodium sulfate, not sulfite, as S-source, a typographical error in the reported recipe. Unless otherwise noted, the medium was buffered to a pH of 5.5 with 5 mM 2-(N-morpholino)-ethanesulfonic acid (MES). Ammonium-free “MES 5.5” basal medium was used to examine the utilization of AHLs and HSL as potential nitrogen sources. 100 mM stock solutions of AHLs were prepared by dissolving AHLs in ethyl acetate that had been acidified with glacial acetic acid (0.01% v/v), and stocks were stored at −20° C. […]

[5] = P. aeruginosa PAO1, minimal salts media pH 5.5
[6] = strain PAI-A, minimal salts media pH 7.2

`CCCC(=O)NC1CCOC1=O` (racemic) [C4HSL, N-3-butanoyl-DL-homoserine lactone] was tested, and the “Degradation of short chain AHL given as co-substrate” value (P. aeruginosa PAO1 [1]; PAO-1, 1 mM C4HSL in 3OC12HSL-containing media) was “did not degrade detectable amounts” and the “Degradation of short chain AHL given as co-substrate” value (Pseudomonas strain PAI-A [2]; PAI-A, 1 mM C4HSL in 3OC12HSL-containing media) was “did not degrade detectable amounts”.

With `CCCCCCCC(=O)NC1CCOC1=O` (racemic) [C8-DL-HSL, N-3-octanoyl-DL-homoserine lactone] the Doubling time (P. aeruginosa PAO1 [1]; [5]) was 15.0 ± 2 h, the Yield (P. aeruginosa PAO1 [1]; [5]) was 95 ± 4 g/mol and the “HSL-releasing degradation by E. coli expressing recombinant PvdQ” value (shortened to “HSL-releasing degradation”) (PvdQ AHL acylase) was “catalyzed the HSL-releasing degradation”. The “Yield (qualitative)” value (Pseudomonas strain PAI-A [2]; [6]) was “+, ND^b”.

In the case of `CCCCCCCCCC(=O)NC1CCOC1=O` (racemic) [C10-DL-HSL, N-3-decanoyl-DL-homoserine lactone], the Doubling time (P. aeruginosa PAO1 [1]; [5]) is reported as 14.0 ± 3.8 h, the Yield (P. aeruginosa PAO1 [1]; [5]) is reported as 97 ± 3 g/mol and the “HSL-releasing degradation” value (PvdQ AHL acylase) is reported as “catalyzed the HSL-releasing degradation”. For the same molecule, the “Yield (qualitative)” value (Pseudomonas strain PAI-A [2]; [6]) was “+, ND^”.

`CCCCCCCCCCCC(=O)NC1CCOC1=O` (racemic) [C12-DL-HSL, N-3-dodecanoyl-DL-homoserine lactone] was tested, and the “AHL-dependent release of ninhydrin-reactive materials (HSL, homoserine) by TLC” value (Pseudomonas strain PAI-A [3]) was “AHL-dependent release of ninhydrin-reactive materials”, the Doubling time (P. aeruginosa PAO1 [1]; [5]) was 14.9 ± 7.5 h and the Yield (P. aeruginosa PAO1 [1]; [5]) was 84 ± 7 g/mol. For the same molecule, the “HSL-releasing degradation” value (PvdQ AHL acylase) was “catalyzed the HSL-releasing degradation”, the “AHL-dependent release of ninhydrin-reactive materials (HSL, homoserine) by TLC” value (P. aeruginosa PAO1 [4]) was “AHL-dependent release of ninhydrin-reactive materials” and the Doubling time (Pseudomonas strain PAI-A [2]; [6]) was 16.5 ± 3 h. The Yield (Pseudomonas strain PAI-A [2]; [6]) was 80 ± 18 g/mol.

With `CCCCCCCCCCCCCC(=O)NC1CCOC1=O` (racemic) [C14-DL-HSL, N-3-tetradecanoyl-DL-homoserine lactone] the Doubling time (P. aeruginosa PAO1 [1]; [5]) was 21.0 ± 5.3 h, the Yield (P. aeruginosa PAO1 [1]; [5]) was 84 ± 12 g/mol and the “HSL-releasing degradation” value (PvdQ AHL acylase) was “catalyzed the HSL-releasing degradation”. For the same molecule, the “Yield (qualitative)” value (Pseudomonas strain PAI-A [2]; [6]) was “+, ND^”.

`CCCCCCCCCC(=O)CC(=O)N[C@H]1CCOC1=O` [3OC12-L-HSL, N-3-oxododecanoyl-L-homoserine lactone] showed a Doubling time (P. aeruginosa PAO1 [1]; [5]) of 25.0 ± 3 h, a Yield (P. aeruginosa PAO1 [1]; [5]) of 76 ± 10 g/mol and a Doubling time (P. aeruginosa PAO1 [1]; PAO1, defined ammonia-replete media, pH 5.5 and 7.2, naive cells after lag) of 264 to 600 h. The Doubling time (P. aeruginosa PA14) was 11 to 25 days, the “HSL-releasing degradation” value (PvdQ AHL acylase) was “degraded 3OC12HSL; also recorded: Within an hour, the AHL disappeared” and the Doubling time (Pseudomonas strain PAI-A [2]; [6]) was 25.0 ± 3.5 h. The Yield (Pseudomonas strain PAI-A [2]; [6]) was 84 ± .2 g/mol.

`CCCCCCCCCC(=O)CC(=O)NC(CCO)C(=O)O` (centres unmarked) [3OC12-homoserine] was tested, and the “Product accumulation in PvdQ-expressing E. coli suspensions” value (PvdQ AHL acylase) was “No 3OC12-homoserine accumulation was observed”.

`CCCCCCCCCC(=O)O` [Decanoate] was tested, and the Yield (P. aeruginosa PAO1 [1]; [5]) was 130 ± 3 g/mol and the Yield (Pseudomonas strain PAI-A [2]; [6]) was 126 ± .5 g/mol.

For `CCCCCCCCCCCC(=O)O` [Dodecanoate], the Yield (P. aeruginosa PAO1 [1]; [5]) was 141 ± 4 g/mol and the Yield (Pseudomonas strain PAI-A [2]; [6]) was 155 ± 8.4 g/mol.

In the case of `N[C@H]1CCOC1=O` [HSL, homoserine lactone], the “Use as sole source of energy or nitrogen” value (P. aeruginosa PAO1 [1]; P. aeruginosa PAO1) is reported as “did not use”, the “Utilization as an energy source” value (P. aeruginosa PAO1 [1]; P. aeruginosa PAO1) is reported as “Neither strain PAI-A nor PAO1 used; also recorded: did not grow” and the “Product accumulation in PvdQ-expressing E. coli suspensions” value (PvdQ AHL acylase) is reported as “accumulation of stoichiometric amounts”. For the same molecule, the “Utilization as an energy source” value (Pseudomonas strain PAI-A [2]; strain PAI-A, pH 7.2) was “Neither strain PAI-A nor PAO1 used”.

For `O=C(O)CCC(=O)O` [Succinate], the Doubling time (P. aeruginosa PAO1 [1]; [5]) was 0.6 ± .09 h, the Yield (P. aeruginosa PAO1 [1]; [5]) was 43 ± 3 g/mol and the Doubling time (Pseudomonas strain PAI-A [2]) was 0.583 h. The Doubling time (Pseudomonas strain PAI-A [2]; pH 7.2) was 0.6 ± .02 h and the Yield (Pseudomonas strain PAI-A [2]; pH 7.2) was 49 ± 3.8 g/mol.

Molecule `CCCCCCCCCCCCCC(=O)O` [Tetradecanoate] has a Yield (P. aeruginosa PAO1 [1]; [5]) of 177 ± 16 g/mol and a Yield (Pseudomonas strain PAI-A [2]; [6]) of 198 ± 3 g/mol.

In the case of `N[C@@H](CCO)C(=O)O` [homoserine], the “Use as sole source of energy or nitrogen” value (P. aeruginosa PAO1 [1]; P. aeruginosa PAO1) is reported as “did not use” and the “Utilization as an energy source” value (P. aeruginosa PAO1 [1]; P. aeruginosa PAO1) is reported as “did not grow”.

`CCn1cc(C(=O)O)c(=O)c2ccc(C)nc21` [nalidixate] was tested, and the “Growth in media containing the agent” value (Pseudomonas strain PAI-A [2]; PAI-A, 30 μg nalidixate·ml^−1) was “did not grow”.
